Key:
YbhFSR [1] = molecular target: T1, YbhFSR (Escherichia coli, UniProt P0AFP9+P0AFQ2); test: whole-cell ethidium fluorescence efflux, knockout and complemented strains; type: cell-based; design: gene ybhS; native transporter in whole cells; ybhF knockout, acrB ybhF double knockout and ybhF overexpression strains compared; YbhG and TolC probably also take part; conditions: 2.5 μM EB preloaded, 25 mM glucose, 50 mM KPi pH 7.0, 5 mM MgSO4, 37 °C
YbhFSR [2] = molecular target: T1, YbhFSR; design: gene ybhS; conditions: 100 μg/ml tetracycline, Mg2+ buffer pH 8.0

| SMILES | whole-cell ethidium fluorescence efflux, knockout and complemented strains (YbhFSR [1]) | whole-cell tetracycline fluorescence efflux and accumulation, knockout strains (YbhFSR [2]) |
| --- | --- | --- |
| CC[n+]1c(-c2ccccc2)c2cc(N)ccc2c2ccc(N)cc21 [ethidium bromide] | the ybhF gene knockout reduced the ethidium efflux capacity | – |
| CN(C)[C@@H]1C(=O)C(C(N)=O)=C(O)[C@@]2(O)C(=O)C3=C(O)c4c(O)cccc4[C@@](C)(O)[C@H]3C[C@@H]12 [tetracycline] | – | knockout of ybhF decreased the efflux of tetracycline and increased the intracellular accumulation |
